Activity calls are given as the source filed them. The rule behind the calls is not given here. Where only a bound is given, the exact number is not on record here.

One assay relates to SK-HEP1. The assay can be described thus: Antiproliferative activity against human SKHEP1 cells after 72 hrs by SRB assay. The conditions noted are these: SK-HEP1, 72 h.
For the next assay, the system named is MDA-MB-231. The assay can be described thus: Antiproliferative activity against human MDA-MB-231 cells after 72 hrs by SRB assay. The following applies: MDA-MB-231, 72 h.
The test system of a further assay is SNU-638. The assay can be described thus: Antiproliferative activity against human SNU638 cells after 72 hrs by SRB assay. The following applies: SNU-638, 72 h. For orientation: The SRB assay estimates cell density from bound dye.
The subject of a further assay is HCT-116. The assay can be described thus: cells. The following applies: Homo sapiens, HCT-116, 72 h.
A further assay relates to A549. Briefly: cells. The following applies: Homo sapiens, A549, 72 h.
For assay [1], the species on record is Homo sapiens. Briefly: Inhibition of PI3K in human HCT116 cells assessed as reduction in Akt phosphorylation at Ser473 residue after 24 hrs by Western blot analysis. In kind it is cell-based. Background: Immunoblotting shows a protein as a band on a membrane.
Assay [2] concerns the target Phosphatidylinositol 4,5-bisphosphate 3-kinase catalytic subunit beta isoform (Homo sapiens, UniProt P42338). The assay can be described thus: Inhibition of PI3Kbeta (unknown origin) using PIP2 as substrate by HTRF […] assay. For orientation: TR-FRET usually uses a lanthanide donor and a delayed reading to cut background.
Assay [3] addresses Phosphatidylinositol 4,5-bisphosphate 3-kinase catalytic subunit gamma isoform (Homo sapiens, UniProt P48736). The assay can be described thus: Inhibition of N-terminal His6-tagged recombinant full-length human PI3Kgamma expressed in baculovirus infected Sf21 insect cells using PIP2 as substrate by HTRF […] assay.
The target of assay [4] is PI3-kinase p110-alpha/p85-alpha (Homo sapiens, UniProt P42336). The assay can be described thus: Inhibition of N-terminal His6-tagged recombinant full-length human p110alpha/untagged recombinant full length human p85alpha expressed in baculovirus infected Sf21 insect cells using PIP2 as substrate by HTRF […] assay.
In a further assay the test system is HUVEC. Briefly: Cytotoxicity against HUVEC after 72 hrs by SRB assay. The conditions noted are these: Homo sapiens.
For assay [5], the target named is PI3-kinase p110-delta/p85-alpha (Homo sapiens, UniProt O00329). The assay can be described thus: Inhibition of p110delta/p85alpha (unknown origin) using PIP2 as substrate by HTRF […] assay. Type of assay: protein-complex assay.
The species entered for assay [6] is Homo sapiens. The assay can be described thus: Inhibition of PI3K in human HCT116 cells assessed as reduction in Akt phosphorylation at Ser473 residue at 0.5 uM after 24 hrs by Western blot analysis. Type of assay: cell-based.

Chain of Phosphatidylinositol 4,5-bisphosphate 3-kinase catalytic subunit gamma isoform (P48736 whole entry, canonical isoform): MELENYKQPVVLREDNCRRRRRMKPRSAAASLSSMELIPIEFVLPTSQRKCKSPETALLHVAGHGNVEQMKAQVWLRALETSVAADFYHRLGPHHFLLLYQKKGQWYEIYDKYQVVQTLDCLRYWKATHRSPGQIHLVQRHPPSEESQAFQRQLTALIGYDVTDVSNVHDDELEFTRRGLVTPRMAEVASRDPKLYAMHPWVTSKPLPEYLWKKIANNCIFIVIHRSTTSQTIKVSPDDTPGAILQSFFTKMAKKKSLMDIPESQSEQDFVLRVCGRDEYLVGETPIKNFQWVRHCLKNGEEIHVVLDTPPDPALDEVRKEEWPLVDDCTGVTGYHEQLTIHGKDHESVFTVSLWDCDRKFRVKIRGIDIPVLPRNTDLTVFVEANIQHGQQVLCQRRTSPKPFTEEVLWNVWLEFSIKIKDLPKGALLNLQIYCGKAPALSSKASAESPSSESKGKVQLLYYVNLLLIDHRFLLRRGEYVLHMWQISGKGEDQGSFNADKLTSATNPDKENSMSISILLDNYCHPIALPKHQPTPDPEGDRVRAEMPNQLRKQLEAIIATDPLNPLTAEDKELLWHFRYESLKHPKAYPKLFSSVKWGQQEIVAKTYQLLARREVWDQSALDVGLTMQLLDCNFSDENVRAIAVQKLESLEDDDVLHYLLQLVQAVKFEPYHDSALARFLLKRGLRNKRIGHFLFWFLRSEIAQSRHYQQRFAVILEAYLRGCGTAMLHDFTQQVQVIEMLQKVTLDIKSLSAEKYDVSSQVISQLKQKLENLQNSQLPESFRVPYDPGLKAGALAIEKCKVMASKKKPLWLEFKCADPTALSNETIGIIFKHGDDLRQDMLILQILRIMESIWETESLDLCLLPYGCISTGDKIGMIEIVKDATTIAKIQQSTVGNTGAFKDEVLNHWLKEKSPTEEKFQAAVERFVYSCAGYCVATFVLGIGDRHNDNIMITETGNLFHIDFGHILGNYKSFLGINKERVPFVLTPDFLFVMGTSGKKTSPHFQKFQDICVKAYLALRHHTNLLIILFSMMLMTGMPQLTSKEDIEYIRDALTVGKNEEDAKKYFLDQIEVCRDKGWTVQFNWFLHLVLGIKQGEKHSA
Chain of Phosphatidylinositol 4,5-bisphosphate 3-kinase catalytic subunit beta isoform (P42338 whole entry, canonical isoform): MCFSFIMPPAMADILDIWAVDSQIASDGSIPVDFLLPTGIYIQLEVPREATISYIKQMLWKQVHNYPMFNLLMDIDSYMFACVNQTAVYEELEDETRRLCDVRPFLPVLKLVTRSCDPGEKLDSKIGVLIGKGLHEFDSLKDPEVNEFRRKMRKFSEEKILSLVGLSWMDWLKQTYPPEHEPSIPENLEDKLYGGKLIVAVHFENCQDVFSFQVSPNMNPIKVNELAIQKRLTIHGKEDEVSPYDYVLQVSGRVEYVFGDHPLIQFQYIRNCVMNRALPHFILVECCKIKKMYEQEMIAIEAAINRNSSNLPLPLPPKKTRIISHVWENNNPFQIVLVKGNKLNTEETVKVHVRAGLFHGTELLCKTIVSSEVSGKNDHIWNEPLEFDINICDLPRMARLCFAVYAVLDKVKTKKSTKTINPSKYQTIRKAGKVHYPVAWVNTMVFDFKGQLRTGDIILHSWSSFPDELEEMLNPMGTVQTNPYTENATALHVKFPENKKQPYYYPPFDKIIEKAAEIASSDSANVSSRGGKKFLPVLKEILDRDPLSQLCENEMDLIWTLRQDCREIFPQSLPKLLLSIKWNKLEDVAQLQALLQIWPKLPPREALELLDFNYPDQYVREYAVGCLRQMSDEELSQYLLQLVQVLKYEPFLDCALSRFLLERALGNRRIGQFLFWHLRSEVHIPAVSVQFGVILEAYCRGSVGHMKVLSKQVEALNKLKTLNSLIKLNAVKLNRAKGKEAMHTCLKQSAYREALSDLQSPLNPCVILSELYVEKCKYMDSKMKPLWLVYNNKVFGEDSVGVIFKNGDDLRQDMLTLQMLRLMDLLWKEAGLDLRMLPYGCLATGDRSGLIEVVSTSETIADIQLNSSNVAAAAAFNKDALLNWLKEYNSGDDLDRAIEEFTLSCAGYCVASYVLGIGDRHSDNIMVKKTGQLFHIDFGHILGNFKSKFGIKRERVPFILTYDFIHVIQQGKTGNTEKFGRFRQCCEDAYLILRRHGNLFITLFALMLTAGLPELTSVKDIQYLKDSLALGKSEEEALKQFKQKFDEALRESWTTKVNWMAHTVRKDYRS
Chain of PI3-kinase p110-delta/p85-alpha (P27986 whole entry): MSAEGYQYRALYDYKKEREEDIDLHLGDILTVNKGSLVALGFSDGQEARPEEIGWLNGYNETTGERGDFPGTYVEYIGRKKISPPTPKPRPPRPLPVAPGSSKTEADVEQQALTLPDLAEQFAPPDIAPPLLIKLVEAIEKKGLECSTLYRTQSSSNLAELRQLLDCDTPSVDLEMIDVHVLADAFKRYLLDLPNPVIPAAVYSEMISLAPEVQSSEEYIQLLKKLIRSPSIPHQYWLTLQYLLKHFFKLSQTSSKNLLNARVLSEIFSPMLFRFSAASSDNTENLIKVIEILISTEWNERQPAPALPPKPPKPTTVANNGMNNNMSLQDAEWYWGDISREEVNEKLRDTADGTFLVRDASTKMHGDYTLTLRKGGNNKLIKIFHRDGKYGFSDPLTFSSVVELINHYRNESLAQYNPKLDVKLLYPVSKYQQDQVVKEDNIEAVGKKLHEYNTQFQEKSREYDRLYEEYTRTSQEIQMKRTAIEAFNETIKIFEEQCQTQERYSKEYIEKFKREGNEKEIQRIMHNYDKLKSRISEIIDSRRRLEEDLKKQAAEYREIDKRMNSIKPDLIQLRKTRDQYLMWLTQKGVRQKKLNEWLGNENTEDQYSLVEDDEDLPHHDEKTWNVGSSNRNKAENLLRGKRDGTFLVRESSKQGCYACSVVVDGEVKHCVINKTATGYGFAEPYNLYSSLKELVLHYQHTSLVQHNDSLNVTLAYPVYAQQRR
Chain of PI3-kinase p110-delta/p85-alpha (O00329 whole entry): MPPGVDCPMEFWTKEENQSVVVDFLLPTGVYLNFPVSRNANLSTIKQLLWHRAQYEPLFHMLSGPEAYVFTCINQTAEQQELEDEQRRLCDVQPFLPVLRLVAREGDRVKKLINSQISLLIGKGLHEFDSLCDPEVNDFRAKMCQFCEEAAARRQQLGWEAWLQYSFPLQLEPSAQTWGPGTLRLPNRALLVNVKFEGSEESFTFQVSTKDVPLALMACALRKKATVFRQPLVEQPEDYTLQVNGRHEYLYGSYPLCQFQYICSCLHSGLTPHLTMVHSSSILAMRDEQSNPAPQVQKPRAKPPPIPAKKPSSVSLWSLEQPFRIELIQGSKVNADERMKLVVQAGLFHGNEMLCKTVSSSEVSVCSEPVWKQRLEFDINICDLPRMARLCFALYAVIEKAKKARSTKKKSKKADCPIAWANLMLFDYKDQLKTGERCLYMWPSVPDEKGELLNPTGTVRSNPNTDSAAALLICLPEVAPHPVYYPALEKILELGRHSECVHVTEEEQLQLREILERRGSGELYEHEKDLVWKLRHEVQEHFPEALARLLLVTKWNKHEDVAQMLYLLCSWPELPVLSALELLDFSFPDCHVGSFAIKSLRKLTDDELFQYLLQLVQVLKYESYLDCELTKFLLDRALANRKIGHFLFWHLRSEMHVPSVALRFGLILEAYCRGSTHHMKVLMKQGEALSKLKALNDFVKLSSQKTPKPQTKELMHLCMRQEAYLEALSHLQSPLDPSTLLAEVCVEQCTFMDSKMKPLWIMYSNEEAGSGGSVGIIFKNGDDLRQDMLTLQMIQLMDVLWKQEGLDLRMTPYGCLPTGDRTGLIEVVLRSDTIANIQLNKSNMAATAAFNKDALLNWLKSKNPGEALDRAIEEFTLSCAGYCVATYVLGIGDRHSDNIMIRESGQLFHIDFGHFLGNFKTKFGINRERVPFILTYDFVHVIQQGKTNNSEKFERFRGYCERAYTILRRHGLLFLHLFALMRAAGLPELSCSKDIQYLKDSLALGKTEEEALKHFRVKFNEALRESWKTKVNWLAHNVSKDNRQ
Chain of PI3-kinase p110-alpha/p85-alpha (P27986 whole entry): as the sequence (P27986 whole entry) above
Chain of PI3-kinase p110-alpha/p85-alpha (P42336 whole entry): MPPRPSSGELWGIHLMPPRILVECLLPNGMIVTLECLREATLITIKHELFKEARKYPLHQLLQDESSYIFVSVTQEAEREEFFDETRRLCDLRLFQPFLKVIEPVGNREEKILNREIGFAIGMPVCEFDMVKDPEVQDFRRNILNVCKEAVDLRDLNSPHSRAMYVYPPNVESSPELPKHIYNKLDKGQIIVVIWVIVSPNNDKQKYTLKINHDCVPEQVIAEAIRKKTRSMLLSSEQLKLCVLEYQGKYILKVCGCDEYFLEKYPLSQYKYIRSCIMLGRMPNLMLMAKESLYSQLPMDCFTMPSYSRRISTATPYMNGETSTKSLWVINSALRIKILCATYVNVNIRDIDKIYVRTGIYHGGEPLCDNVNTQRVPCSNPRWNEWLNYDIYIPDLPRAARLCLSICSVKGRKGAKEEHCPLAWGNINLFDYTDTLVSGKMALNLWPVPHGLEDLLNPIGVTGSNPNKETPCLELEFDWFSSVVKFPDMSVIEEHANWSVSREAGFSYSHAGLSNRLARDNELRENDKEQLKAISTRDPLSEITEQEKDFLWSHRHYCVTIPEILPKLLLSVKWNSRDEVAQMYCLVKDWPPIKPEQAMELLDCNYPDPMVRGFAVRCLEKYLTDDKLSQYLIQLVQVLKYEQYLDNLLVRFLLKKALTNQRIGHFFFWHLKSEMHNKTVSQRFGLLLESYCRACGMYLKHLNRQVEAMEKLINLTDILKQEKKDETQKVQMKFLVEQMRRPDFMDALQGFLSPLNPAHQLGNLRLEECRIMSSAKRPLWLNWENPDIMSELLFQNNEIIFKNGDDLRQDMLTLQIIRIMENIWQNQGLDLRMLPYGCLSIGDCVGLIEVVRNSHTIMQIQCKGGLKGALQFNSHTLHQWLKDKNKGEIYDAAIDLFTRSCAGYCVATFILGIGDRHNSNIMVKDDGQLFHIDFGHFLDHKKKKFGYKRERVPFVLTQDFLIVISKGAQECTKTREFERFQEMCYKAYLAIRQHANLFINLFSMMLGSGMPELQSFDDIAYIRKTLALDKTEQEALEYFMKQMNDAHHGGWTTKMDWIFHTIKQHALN
Description for A549: Antiproliferative activity against human A549 cells after 72 hrs by SRB assay

In general, IC50 refers to the concentration at which inhibition is half-maximal. For `COc1ncc(-c2ccc3ncn(CCCCCC(=O)N4CCOCC4)c(=O)c3c2)cc1NS(=O)(=O)c1ccc(F)cc1F`, the IC50 in the assay on SK-HEP1 was determined as 11500 nM; with MDA-MB-231 it was 2150 nM; with SNU-638, 19700 nM; in the assay with HCT-116, 2230 nM; with A549 it was 7600 nM.
On the same counts, the results for `CCOC(=O)c1cnc2ccc(-c3cnc(OC)c(NS(=O)(=O)c4ccc(F)cc4)c3)cn12` are > 20000 nM, 530 nM, > 20000 nM, 640 nM and 510 nM.
The matching figures for `CCOC(=O)c1cnc2ccc(-c3cnc(OC)c(NS(=O)(=O)c4ccc(F)cc4F)c3)cn12`: 300 nM, 120 nM, 360 nM, 90 nM and 300 nM.
The matching figures for `COc1ncc(-c2ccc3ncc(C(=O)NCc4ccncc4)n3c2)cc1NS(=O)(=O)c1ccc(F)cc1F`: 980 nM, 420 nM, 490 nM, 310 nM and 500 nM.
Regarding `COc1ncc(-c2ccc3ncn(CCCCC(=O)N4CCOCC4)c(=O)c3c2)cc1NS(=O)(=O)c1ccc(F)cc1F`, the IC50 was 2250 nM in the assay with SK-HEP1; 1830 nM in the assay on MDA-MB-231; > 20000 nM in the assay on SNU-638; 1110 nM with HCT-116; 2540 nM in the assay on A549.
On the same counts, the results for `COc1ncc(-c2ccc3ncc(C(=O)O)n3c2)cc1NS(=O)(=O)c1ccc(F)cc1F` are 750 nM, 370 nM, 1460 nM, 1310 nM and 1150 nM.
As for `COc1ncc(-c2ccc3ncc(C(=O)NCCN4CCOCC4)n3c2)cc1NS(=O)(=O)c1ccc(F)cc1F`, in the assay listed under Homo sapiens [1], the inhibition entry was “Dose-dependent effect”. In addition, the IC50 worked out at 89 nM in assay [2] and 45 nM in assay [3].
In the case of `COc1ncc(-c2ccc3ncn(CCCN4CCOCC4)c(=O)c3c2)cc1NS(=O)(=O)c1ccc(F)cc1F`, the IC50 came to 6.5 nM in assay [4]; 600 nM with SK-HEP1; 500 nM with MDA-MB-231; 280 nM in the assay with SNU-638; 8970 nM with HUVEC; 108 nM in [2]. Also, the IC50 in assay [3] was determined as 116 nM; in assay [5], 69 nM; in the assay on HCT-116, 200 nM; with A549, 100 nM.
In the case of `CCOC(=O)c1cc2cc(-c3cnc(OC)c(NS(=O)(=O)c4ccc(F)cc4)c3)ccc2[nH]1`, the IC50 in the assay with SK-HEP1 is 300 nM; in the assay on MDA-MB-231, 150 nM; in the assay with SNU-638, 15900 nM; in the assay on HCT-116 it was 1300 nM; in the assay on A549, > 20000 nM.
Take `CCOC(=O)c1cnc2ccc(-c3cncc(NS(=O)(=O)c4ccccc4)c3)cn12`: the IC50 was 1090 nM in the assay with SK-HEP1; 760 nM in the assay on MDA-MB-231; 680 nM with SNU-638; 59 nM in assay [2]; 104 nM in [3]; 540 nM in the assay on HCT-116. Also, half-maximal inhibition in the assay on A549 (IC50) was put at 260 nM. In the assay filed under Homo sapiens [6], the inhibition result was “Active”.
For the compound `CCOC(=O)c1cn2cc(-c3cnc(OC)c(NS(=O)(=O)c4ccc(F)cc4)c3)ccc2n1`, the IC50 with SK-HEP1, with MDA-MB-231, in the assay on SNU-638, with HCT-116 and with A549 was > 20000 nM in each case.
As to `COc1ncc(-c2ccc3ncc(C(=O)N4CCC(OC(=O)c5ccccc5)CC4)n3c2)cc1NS(=O)(=O)c1ccc(F)cc1F`, the IC50 amounted to 2050 nM with SK-HEP1; 1450 nM in the assay on MDA-MB-231; 1390 nM in the assay on SNU-638; 1230 nM in the assay on HCT-116; 1620 nM in the assay on A549.
The matching figures for `COc1ncc(-c2ccc3ncn(CCCn4ccnc4)c(=O)c3c2)cc1NS(=O)(=O)c1ccc(F)cc1F`: > 20000 nM, 11700 nM, 250 nM, 800 nM and 200 nM.
On the same counts, the results for `COc1ncc(-c2ccc3ncc(C(=O)NCCN(C)C)n3c2)cc1NS(=O)(=O)c1ccc(F)cc1F` are > 20000 nM, 1800 nM, 510 nM, 140 nM and 400 nM.
On the same counts, the results for `COc1ncc(-c2ccc3ncn(CCCn4cccn4)c(=O)c3c2)cc1NS(=O)(=O)c1ccc(F)cc1F` are > 20000 nM, > 20000 nM, 360 nM, 4000 nM and 200 nM.
Turning to `COc1ncc(-c2ccc3ncn(CCCn4ccccc4=O)c(=O)c3c2)cc1NS(=O)(=O)c1ccc(F)cc1F`, the IC50 in the assay on SK-HEP1 turned out to be 810 nM; in the assay with MDA-MB-231 it was 150 nM; in the assay on SNU-638 it was 2260 nM; in the assay on HCT-116 it was 1360 nM; in the assay on A549, 570 nM.
In the case of `CCOC(=O)Cn1cnc2ccc(-c3cnc(OC)c(NS(=O)(=O)c4ccc(F)cc4F)c3)cc2c1=O`, the IC50 stood at 1400 nM with SK-HEP1; 120 nM in the assay on MDA-MB-231; 300 nM in the assay with SNU-638; 820 nM in the assay with HCT-116; 100 nM in the assay on A549.
In the case of `CCOC(=O)c1cnc2ccc(-c3cnc(OC)c(NS(C)(=O)=O)c3)cn12`, the half-maximal inhibitory concentration (IC50) in the assay on SK-HEP1 stood at 170 nM; in the assay with MDA-MB-231 it was 190 nM; in the assay on SNU-638, 90 nM; with HCT-116, 320 nM; with A549 it was 230 nM.
On the same counts, the results for `COc1ncc(-c2ccc3ncc(C(=O)N4CCC(O)CC4)n3c2)cc1NS(=O)(=O)c1ccc(F)cc1F` are 790 nM, 630 nM, 270 nM, 490 nM and 480 nM.
For `COc1ncc(-c2ccc3ncc(C(=O)NCCCN4CCOCC4)n3c2)cc1NS(=O)(=O)c1ccc(F)cc1F`, the IC50 in [4] stood at 3.8 nM; in the assay with SK-HEP1 it was 400 nM; in the assay on MDA-MB-231, 300 nM; in the assay with SNU-638, 300 nM; in the assay on HUVEC, 3560 nM; in [2], 106 nM. The IC50 was found to be 37 nM in assay [3], 101 nM in [5], 100 nM with HCT-116 and 500 nM in the assay on A549.
Turning to `CCCCS(=O)(=O)Nc1cc(-c2ccc3ncc(C(=O)OCC)n3c2)cnc1OC`, the IC50 with SK-HEP1 is 830 nM; in the assay on MDA-MB-231, 2320 nM; in the assay on SNU-638, 510 nM; in the assay with HCT-116, 4940 nM; in the assay with A549 it was 3560 nM.

Values taken from ChEMBL document CHEMBL4190317, “Design, synthesis, and biological evaluation of novel 3-substituted imidazo[1,2-a]pyridine and quinazolin-4(3H)-one derivatives as PI3Kα inhibitors” (Eur J Med Chem, 2017).
